According to patent US20180015167A1, “CROSSLINKABLE TREHALOSE FOR THE COVALENT INCORPORATION IN HYDROGELS AND METHODS OF USE” (INVIVO THERAPEUTICS CORPORATION, priority 2013, published 2018):

Test: Solubility of hydrogel precursors in water / aqueous buffer
Type: physicochemical
Procedure: Hydrogels formed by mixing trehalose diacrylate and thiol-containing 4-arm PEG of molecular weight 5000 (4arm-PEG5k-SH). Briefly, trehalose diacrylate was dissolved in PBS (pH7.4, 1.06 mM potassium phosphate monobasic, 150 mM sodium chloride, 2.97 mM sodium phosphate dibasic) to prepare a trehalose-containing precursor solution at a concentration of 50 mg/ml. 9.42 mg 4arm-PEG5k-SH (0.0075 mmol thiols) was dissolved in 66.1 μl PBS and the solution was mixed with 33.9 μl trehalose diacrylate solution (1.7 mg, 1 molar equivalents based on thiols) and by vortexing.
Hydrogels formed by mixing ethoxylated-trimethylolpropan tri(thioglycolate) (TMPE-TGA), PEG diacrylate, and varying amounts of trehalose diacrylate. The following protocol has been used for gel formulation at the 150 μl scale. Briefly, TMPE-TGA was dissolved in PBS to prepare a 40 wt % thiol-containing precursor solution. Trehalose diacrylate was dissolved in PBS to prepare a trehalose-containing precursor solution at a concentration of 40 mg/ml. 10.875 mg PEG diacrylate of molecular weight 700 (PEGDA700, 0.75 molar equivalents based on thiols) was dissolved in 49.94 μl PBS and the solution was mixed with 58.3 μl trehalose diacrylate solution (2.33 mg, 0.25 molar equivalents based on thiols) and 41.8 μl TMPE-TGA solution (0.041 mmol thiols) by vortexing. […]

- solubility in aqueous buffer (PBS pH7.4, room temperature): soluble in aqueous buffer
- water solubility (PBS, room temperature): water soluble
Structure (SMILES): C=CC(=O)OC[C@H]1O[C@H](O[C@H]2O[C@H](COC(=O)C=C)[C@@H](O)[C@H](O)[C@H]2O)[C@H](O)[C@@H](O)[C@@H]1O [trehalose diacrylate]
